These results are taken from patent US20080206215A1, “APPARATUS AND METHOD FOR TREATMENT OF MICROORGANISMS DURING PROPAGATION, CONDITIONING AND FERMENTATION” (priority 2006, published 2008).

Test [1] deals with yeast. Description: ethanol production from corn mash treated with ClO2 prior to fermentation. In kind it is cell-based. To be noted: ClO2 dosages of between about 10 and about 75 mg/L applied to the mash prior to fermentation; FIG. 3. From the text:
FIG. 3 is a graph of time (in hours) versus ethanol produced (in grams) for mash treated with various concentrations of ClO2 prior to the fermentation process.
The ClO2 can also be added to the mash prior to the fermentation process, for example before the SSF stage. FIG. 3 is a graph of time (in hours) versus ethanol produced (in grams) for mash treated with various concentrations of ClO2 prior to the fermentation process.

Another test deals with bacteria. As to the kind of experiment: amount of bacteria (CFU/g) in fermenting mash treated with antimicrobial agents. In kind it is cell-based. To be noted: FIG. 5. The text has this:
FIG. 5 is a bar graph showing the amount of bacteria present (in CFU/g) in fermenting mash treated with different antimicrobial agents (in ppm) at different times (in hours).
FIG. 5 is a bar graph showing the amount of bacteria present (in CFU/g) in fermenting mash treated with different levels of an antimicrobial agent (in ppm), either ClO2 or antibiotic, at different times (in hours).

Test [2] has as its system yeast. Description: yeast viability in corn mash treated with ClO2 during propagation/conditioning. To be noted: yeast treated with ClO2 during propagation/conditioning phase; FIG. 4. In kind it is cell-based. From the text:
FIG. 4 is a bar graph of viability (% of yeast cells living out of the original number) over time (in hours) in the corn mash treated with 0, 10 and 50 ppm of ClO2.
Chlorine dioxide can also be added during propagation and/or conditioning. For example ClO2 can be added to the yeast slurry before SSF replacing the acid washing step. FIG. 4 is a bar graph of viability (% of yeast cells living out of the original number) over time (in hours) in the corn mash treated with 0, 10 and 500 ppm of ClO2. […] The yeast can tolerate a ClO2 environment and remain viable at high concentrations of ClO2. Competing bacteria, wild yeast, molds, etc. will succumb to the ClO2 leaving only highly viable yeast for fermentation without the additional stress of traditional acid washing. Chlorine dioxide dosages of less than about 50 mg/L may be applied directly to the yeast during propagation.

In test [3] the test system is yeast. Description: ethanol production in fermentation batches treated with ClO2 during fermentation. The class given is cell-based. To be noted: ClO2 dosages of less than about 15 mg/L applied directly to the fermentation mixture; FIG. 2. The text has this: FIG. 2 is a graph of time (in hours) versus ethanol produced (in grams) for fermentation batches treated with various concentrations of ClO2 during fermentation.
As mentioned above, ClO2 can be added directly into the fermentation mixture. This can be done by adding the ClO2 in conjunction with the yeast and glucoamylase, for example during the SSF stage. FIG. 2 is a graph of time (in hours) versus ethanol produced (in grams) for fermentation batches treated with various concentrations of ClO2 during fermentation.

The subject of the next test is fermentation. To be noted: background statement; cited from earlier work.
A further test relates to Weisella confusa. To be noted: background statement; cited from earlier work.

With `[O][Cl+][O-]` [ClO2, Chlorine dioxide], the “ethanol production versus control” value with yeast [1] and with yeast [3] was “greater ethanol production than the control containing no ClO2” in each case. Moreover, in the test with bacteria (corn mash treated with ClO2, after 72 hours), the “microbial reduction versus untreated mash” value was “greater microbial reduction than untreated mash”. The “microbial reduction versus antibiotic-treated mash” value in the test with bacteria (corn mash treated with greater than 10 ppm of ClO2, after 72 hours) is on record as “greater microbial reduction than the corn mash treated with antibiotic”. Besides, the reaction with glucoamylase result with glucoamylase is “does not exhibit a significant reaction with glucoamylase”. The “greater yeast viability than untreated yeast” value in the test with yeast [2] is on record as “up to 80%”.

Regarding `[O-][Cl+]O` [chlorite ion], the “concentration that inhibits the glucoamylase enzyme” value in the test with glucoamylase (5% maltose solution, FIG. 6) was ≥ 14 mg/L.

Virginiamycin: the “concentration that suppresses fermentation” value in the test on fermentation is recorded as “over 2 mg/L”. Also, the “concentration required to inhibit growth” value in the test on Weisella confusa is listed as “over 25 mg/L”.
